Laboratory results from ChEMBL document CHEMBL1121794, “Octanol-physiological buffer distribution coefficients of lipophilic amines by reversed-phase high-performance liquid chromatography and their correlation with biological activity” (J Med Chem, 1981).

How the values were obtained:
[1] = not given; remark: listed apart in the source
[2] = octanol/water
Description: Partition coefficient (logD, measured by HPLC, log k')

[3] = not given; remark: listed apart in the source
[4] = not given; remark: listed apart in the source
[5] = not given; remark: listed apart in the source
[6] = not given; remark: listed apart in the source
[7] = not given; remark: listed apart in the source
[8] = (§1) Partition coefficient (logD7.4); settings: octanol/water, pH 7.4
[9] = (§2) Partition coefficient (logD) (HPLC); assay type: physicochemical; settings: octanol/water
[10] = as §2; assay type: physicochemical; settings: octanol/water; remark: listed apart in the source
[11] = physchem; settings: octanol/water
[12] = physchem; settings: octanol/water; remark: listed apart in the source
[13] = not given; remark: listed apart in the source
[14] = not given; remark: listed apart in the source
[15] = not given; remark: listed apart in the source
[16] = not given; remark: listed apart in the source
[17] = not given; remark: listed apart in the source
[18] = not given; remark: listed apart in the source
[19] = not given; remark: listed apart in the source
[20] = physchem; settings: octanol/water, pH 7.4
[21] = as §1; settings: octanol/water, pH 7.4; remark: listed apart in the source
[22] = species: Rattus norvegicus
[23] = species: Rattus norvegicus; remark: listed apart in the source
Description: Apparent partition coefficient was measured as histamine releasing activity in rat mast cells.

[24] = logD (measured by HPLC) (as log k'); assay type: ADME
[25] = target: Serum albumin (Bos taurus) (UniProt P02769); test: BSA binding (log K)

c1ccc2nc3ccccc3cc2c1 [ACRIDINE]
Log k': 1.447
Log k' [1]: 1.501
Log k' [2]: 1.993
Log k' [3]: 0.775
Log k' [4]: 2.146
Log k' [5]: 1.556
Log k' [6]: 2.103
Log k' [7]: 0.685
logD [8]: 3.29

c1ccccc1 [BENZENE]
Log k' [2]: 0.874

Clc1ccccc1 [CHLOROBENZENE]
Log k': 1.61
Log k' [1]: 1.027
Log k' [3]: 0.773
logD [9]: 1.05
Log k' [4]: 1.631
Log k' [6]: 1.61
Log k' [7]: 1.022
logD [10]: 1.56
logD [8]: 2.87

CN(C)CCC(c1ccc(Cl)cc1)c1ccccn1 (configuration not stated) [CHLORPHENIRAMINE]
Log k': 0.074
Log k' [1]: 0.007
logD [11]: 1.53
Log k' [3]: 0.334
logD [9]: 0.466
Log k' [4]: 0.273
logD [12]: 1.51
Log k' [6]: 0.262
Log k' [7]: -0.329
logD [10]: 0.466
logD [8]: 1.38

CN1CCN(C2=Nc3cc(Cl)ccc3Nc3ccccc32)CC1 [CLOZAPINE]
Log k': 1.725
Log k' [13]: 0.817
Log k' [1]: 1.136
Log k' [14]: 1.15
logD [9]: 1.4
Log k' [4]: 1.734
Log k' [6]: 1.73
logD [10]: 1.66
logD [8]: 2.99

CN1CCC(=C2c3ccccc3C=Cc3ccccc32)CC1 [CYPROHEPTADINE]
Log k' [13]: 1.037
Log k' [15]: 1.715
Log k' [16]: 1.529
Log k' [17]: 1.984
Log k' [1]: 1.516
Log k' [2]: 1.853
Log k' [14]: 1.43
Log k' [18]: 1.715
Log k' [4]: 1.999
Log k' [19]: 1.527
logD [20]: 3.14
logD [8]: 3.11

CCCCOc1cc(C(=O)NCCN(CC)CC)c2ccccc2n1 [DIBUCAINE]
Log k': 1.11
Log k' [1]: 1.064
Log k' [2]: 1.588
Log k' [3]: 0.915
Log k' [4]: 1.651
Log k' [5]: 1.215
Log k' [6]: 1.642
Log k' [7]: 0.501
logD [8]: 2.91

COc1ccccc1N1CCN(CCCC(=O)c2ccc(F)cc2)CC1 [FLUANISONE]
Log k': 1.64
Log k' [1]: 0.996
Log k' [2]: 1.448
Log k' [3]: 0.805
Log k' [4]: 1.669
Log k' [5]: 1.175
Log k' [6]: 1.64
Log k' [7]: 1.063
logD [8]: 2.93

CN(C)CCCN1c2ccccc2CCc2ccccc21 [IMIPRAMINE]
Log k' [15]: 1.145
Log k' [16]: 0.806
Log k' [17]: 1.227
Log k' [2]: 1.194
Log k' [19]: 0.934

O=C(NC1CCN(CCc2c[nH]c3ccccc23)CC1)c1ccccc1 [INDORAMIN]
logD [21]: 2.27
Log k' [13]: -0.055
Log k' [15]: 0.536
Log k' [16]: 0.348
Log k' [17]: 1.028
Log k' [1]: 0.297
Log k' [2]: 0.858
Log k' [14]: 0.136
Log k' [18]: 0.536
Log k' [4]: 1.049
Log k' [19]: 0.413
logD [20]: 2.28
logD [8]: 2.313

Cc1cccc(C)c1NC(=O)C1CCCCN1C (configuration not stated) [MEPIVACAINE]
Log k': 0.008
Log k' [1]: -0.564
Log k' [2]: -0.098
logD [11]: 1.22
Log k' [3]: -0.462
Log k' [4]: 0.051
logD [12]: 1.26
Log k' [5]: -0.429
Log k' [6]: 0.008
Log k' [7]: -0.492
logD [8]: 1.27

CN1CCCCC1CCN1c2ccccc2Sc2ccc([S+](C)[O-])cc21 (configuration not stated) [MESORIDAZINE]
Log k' [2]: 1.045
logD [11]: 1.84
logD [12]: 1.78
Log k' [5]: 0.923
logD [8]: 1.8

O=[N+]([O-])c1ccccc1 [NITROBENZENE]
Log k' [2]: 0.564
logD [8]: 1.88

CNCCC=C1c2ccccc2CCc2ccccc21 [NORTRIPTYLINE]
pKa [21]: 9.73
Log k' [13]: 0.349
Log k' [2]: 1.162
Log k' [14]: 0.899
logD [11]: 2.04
Log 1/ED50 [22]: 1.76
Papp [23]: 1.8
logD [12]: 2.01
logD [8]: 1.98

CN1CCN(CCCN2c3ccccc3Sc3ccc(Cl)cc32)CC1 [PROCHLORPERAZINE]
pKa [21]: 8.1
Log k' [3]: 1.907
Log k' [24]: 2.292
Log 1/ED50 [22]: 2.75
Papp [23]: 2.4
BSA binding [25]: 3.83
Log k' [6]: 2.767
Log k' [7]: 1.571

CN(C)CCCN1c2ccccc2Sc2ccccc21 [PROMAZINE]
pKa [21]: 9.42
Log k' [13]: 0.505
Log k' [16]: 0.907
Log k' [17]: 1.345
Log k' [1]: 0.927
Log k' [2]: 1.378
Log k' [14]: 1.252
Log k' [24]: 1.47
Log k' [18]: 1.465
Log 1/ED50 [22]: 2.05
Papp [23]: 2.15
Log k' [4]: 1.351
Log K [25]: 3.21
Log k' [19]: 1.117
logD [20]: 2.54
logD [8]: 2.48

CCC(=O)O[C@](Cc1ccccc1)(c1ccccc1)[C@H](C)CN(C)C [PROPOXYPHENE]
Log k': 0.769
Log k' [2]: 1.124
Log k' [3]: 0.673
Log k' [18]: 0.656
Log k' [4]: 1.263
Log k' [5]: 0.795
Log k' [6]: 1.259
Log k' [7]: 0.483
logD [8]: 2.36
